Like-named read-outs stand apart in the source and are kept apart here.
What was measured:
SMG1 = target: T1, SMG1 (Homo sapiens, UniProt Q96Q15); assay: KiNativ kinase panel; format: cell-based; conditions: 1 μM, MCF-7 Cells, ATP
T1 construct: endogenous in cells; host or cells: MCF7

[1] = tested on: MSK1 domain1, MSK2 domain1; assay: KiNativ kinase panel; format: cell-based, human; conditions: 1 μM, MCF-7 Cells, ATP Loop
MAP3K15, MAP3K5, MAP3K6 = assay: KiNativ kinase panel; format: cell-based, human; conditions: 1 μM; MCF-7 Cells; Lys1; IAIKEIPER
p38a = target: T2, p38a (Homo sapiens, UniProt Q16539); assay: KiNativ kinase panel; format: cell-based; conditions: 1 μM, MCF-7 Cells
T2 construct: purchased ActivX Biosciences (KiNativ)
T2 sequence (Q16539 whole entry): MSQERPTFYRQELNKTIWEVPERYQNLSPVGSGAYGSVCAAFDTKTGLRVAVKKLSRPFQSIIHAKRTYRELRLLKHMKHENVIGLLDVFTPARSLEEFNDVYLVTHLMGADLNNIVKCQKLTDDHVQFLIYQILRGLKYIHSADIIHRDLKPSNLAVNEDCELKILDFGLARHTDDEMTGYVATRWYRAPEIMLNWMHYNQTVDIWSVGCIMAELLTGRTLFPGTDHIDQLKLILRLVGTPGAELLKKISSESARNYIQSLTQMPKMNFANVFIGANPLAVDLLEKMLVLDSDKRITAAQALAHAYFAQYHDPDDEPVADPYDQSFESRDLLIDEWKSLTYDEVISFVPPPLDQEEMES

ITPK1 = target: T3, ITPK1 (Homo sapiens, UniProt Q13572); assay: KiNativ kinase panel; format: cell-based; conditions: 1 μM, MCF-7 Cells, ATP
T3 construct: endogenous in cells; host or cells: MCF7
T3 sequence (Q13572 1-414): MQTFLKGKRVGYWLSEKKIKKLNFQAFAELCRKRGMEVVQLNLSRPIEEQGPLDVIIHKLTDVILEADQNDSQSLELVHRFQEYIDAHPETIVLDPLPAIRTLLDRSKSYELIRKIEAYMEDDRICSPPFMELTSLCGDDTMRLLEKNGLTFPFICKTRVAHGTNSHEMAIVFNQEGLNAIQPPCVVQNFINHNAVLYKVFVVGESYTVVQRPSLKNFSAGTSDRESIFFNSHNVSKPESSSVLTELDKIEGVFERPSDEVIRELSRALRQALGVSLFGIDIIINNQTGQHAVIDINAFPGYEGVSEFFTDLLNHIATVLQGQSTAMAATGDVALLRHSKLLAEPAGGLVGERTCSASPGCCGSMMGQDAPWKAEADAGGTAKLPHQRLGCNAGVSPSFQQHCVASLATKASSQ

MARK2, MARK3 = assay: KiNativ kinase panel; format: cell-based, human; conditions: 1 μM, MCF-7 Cells, Lys2
p38d, p38g = assay: KiNativ kinase panel; format: cell-based, human; conditions: 1 μM, MCF-7 Cells, Lys2
MAP3K2, MAP3K3 = assay: KiNativ kinase panel; format: cell-based, human; conditions: 1 μM; MCF-7 Cells; Lys2; DIKGANILR
SYK = target: T4, SYK (Homo sapiens, UniProt P43405); assay: KiNativ kinase panel; format: cell-based; conditions: 1 μM, MCF-7 Cells
T4 construct: MCF7 cells were exposed to; endogenous in cells; host or cells: MCF7

CSK = target: T5, CSK (Homo sapiens, UniProt P41240); assay: KiNativ kinase panel; format: cell-based; conditions: 1 μM, MCF-7 Cells
T5 construct: MCF7 cells were exposed to; endogenous in cells; host or cells: MCF7

MAST1, MAST2 = assay: KiNativ kinase panel; format: cell-based, human; conditions: 1 μM, MCF-7 Cells, Lys2
PI3K-GAMMA = target: T6, PI3K-GAMMA (Homo sapiens, UniProt P48736); assay: Nanosyn Lipid Kinase screen; format: biochemical
T6 construct: purchased Thermo Fisher lot#1716438D
Procedure: (§1) complex formation) controls.
(§2) Nanosyn Lipid Kinase screen. Biochemical inhibition of lipid and related protein kinases was determined by Nanosyn (Santa Clara, CA). […]
(§3) was determined by detection of fluorescent substrates using a microfluidic electrophoresis mobility shift assay with a LabChip3000 instrument (Caliper/PerkinElmer). Bodipy labeled phosphatidylinositol 4,5 phosphate (FL-PIP2) (Echelon Biosciences, Salt Lake City, Utah) with 1,2-dioctanoyl-sn-glycero-3-phospho-L-serine (PS) (Avanti Polar Lipids (Alabaster, AL) was […]
(§4) of DNA-PK (Promega, Cat#V4106) on a peptide/dsDNA complex was assayed by detection of ADP formation using ADP-Glo (Promega). Kinase reactions were assembled in 384 well plates in a total volume of 20 µL as follows. For PI3K isoforms, the kinase protein was pre-diluted to 2x concentration in the assay buffer (50 mM HEPES, pH 7.5, 1 mM DTT, 5 mM MgCl 2, 0.01% […]
(§5) well plate (10 µL per well). Compounds were serially pre-diluted in DMSO and added to the protein samples by acoustic dispensing (200 nL, Labcyte Echo). Concentration of DMSO was equalized to 1% in all samples. All test compounds were tested at 12 concentrations, 3x dilution intervals. The control samples (0%-inhibition in the absence of inhibitor, DMSO only) and 100%-inhibition (in the absence of enzyme) were assembled in replicates of four and were used to calculate %-inhibition in the presence of compounds. After 30 min of pre-incubation with compounds, the reactions were initiated by addition of 10 µL of FL-PIP2/PS substrate (10 µM […]
(§6) (PI3Kα,β), 0.5 nM (PI3Kδ) and 10 nM (PI3Kγ). Final concentration of ATP was 100 µM.
(§7) Following incubation, the reactions were quenched by addition of 50 µL of termination buffer (100 mM HEPES, pH 7.5,

mTORC1 = target: T7, mTORC1 (Homo sapiens, UniProt P42345+P62942); assay: Nanosyn Lipid Kinase screen; format: biochemical
T7 construct: purchased BPS lot # 150818-A
Procedure: as §1, §2, §3, §4, §5, §6, §7

PI3K-BETA = target: T8, PI3K-BETA (Homo sapiens, UniProt P42338); assay: Nanosyn Lipid Kinase screen; format: biochemical
T8 construct: purchased Carna lot # 12CBS-0359H
Procedure: as §1, §2, §3, §4, §5, §6, §7

PI3K-DELTA = target: T9, PI3K-DELTA (Homo sapiens, UniProt O00329); assay: Nanosyn Lipid Kinase screen; format: biochemical
T9 construct: purchased Carna lot#09CBS-1198D
Procedure: as §1, §2, §3, §4, §5, §6, §7

PI3K-ALPHA = target: T10, PI3K-ALPHA (Homo sapiens, UniProt P42336); assay: Nanosyn Lipid Kinase screen; format: biochemical
T10 construct: purchased BPS lot #110809
Procedure: as §1, §2, §3, §4, §5, §6, §7

DLK = target: T11, DLK (Homo sapiens, UniProt Q12852); assay: KiNativ kinase panel; format: cell-based; conditions: 1 μM; MCF-7 Cells; Lys2; DLKSPNMLITYDDVVK
T11 construct: endogenous in cells; host or cells: MCF7

NDR1, NDR2 = assay: KiNativ kinase panel; format: cell-based, human; conditions: 1 μM; MCF-7 Cells; Activation Loop; LSDFGLCTGLKK
JAK1_Domain2 domain2 = target: T12, JAK1_Domain2 domain2 (Homo sapiens, UniProt P23458); assay: KiNativ kinase panel; format: cell-based; conditions: 1 μM, MCF-7 Cells
T12 construct: endogenous in cells; host or cells: MCF7
T12 sequence (P23458 whole entry, the tested form may be a part): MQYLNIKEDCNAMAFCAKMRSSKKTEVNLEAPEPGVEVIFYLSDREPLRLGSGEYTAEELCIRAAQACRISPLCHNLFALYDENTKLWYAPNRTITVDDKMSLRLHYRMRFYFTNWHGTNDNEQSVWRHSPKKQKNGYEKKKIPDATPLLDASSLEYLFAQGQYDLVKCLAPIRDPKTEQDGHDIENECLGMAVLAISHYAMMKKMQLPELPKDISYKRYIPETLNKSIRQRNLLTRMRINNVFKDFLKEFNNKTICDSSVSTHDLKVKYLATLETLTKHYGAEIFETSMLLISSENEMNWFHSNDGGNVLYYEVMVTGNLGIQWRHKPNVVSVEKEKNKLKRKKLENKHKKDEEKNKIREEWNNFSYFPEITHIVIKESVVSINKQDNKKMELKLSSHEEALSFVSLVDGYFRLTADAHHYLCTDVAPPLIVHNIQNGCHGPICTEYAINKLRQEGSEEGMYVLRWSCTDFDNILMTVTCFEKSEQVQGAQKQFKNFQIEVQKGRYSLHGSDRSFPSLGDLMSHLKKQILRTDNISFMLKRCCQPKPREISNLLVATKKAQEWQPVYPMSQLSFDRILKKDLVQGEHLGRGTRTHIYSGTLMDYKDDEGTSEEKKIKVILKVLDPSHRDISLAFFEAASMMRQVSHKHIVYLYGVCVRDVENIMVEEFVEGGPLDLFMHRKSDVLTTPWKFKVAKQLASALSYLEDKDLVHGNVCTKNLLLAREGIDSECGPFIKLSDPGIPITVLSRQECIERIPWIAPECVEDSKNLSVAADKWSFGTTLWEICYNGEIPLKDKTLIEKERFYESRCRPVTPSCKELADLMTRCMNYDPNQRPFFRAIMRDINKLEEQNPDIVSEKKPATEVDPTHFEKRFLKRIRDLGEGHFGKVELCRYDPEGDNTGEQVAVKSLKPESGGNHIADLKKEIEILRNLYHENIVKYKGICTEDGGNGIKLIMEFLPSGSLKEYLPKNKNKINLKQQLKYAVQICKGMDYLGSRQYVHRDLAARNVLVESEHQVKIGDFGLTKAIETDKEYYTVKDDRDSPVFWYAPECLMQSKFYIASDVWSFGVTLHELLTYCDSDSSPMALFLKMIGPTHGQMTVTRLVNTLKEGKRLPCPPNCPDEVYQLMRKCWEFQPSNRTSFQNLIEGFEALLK

[2] = ESIFFNSHNVSKPESSSVLTELDKIEGVFERPSDEVIR
[3] = Activation Loop, VSDFGLTKEASSTQDTGKLPVK
[4] = Activation Loop, IGDFGLTKAIETDKEYYTVK
[5] = Lys1, YDPEGDNTGEQVAVKSLKPESGGNHIADLKK

T1 sequence (Q96Q15 whole entry): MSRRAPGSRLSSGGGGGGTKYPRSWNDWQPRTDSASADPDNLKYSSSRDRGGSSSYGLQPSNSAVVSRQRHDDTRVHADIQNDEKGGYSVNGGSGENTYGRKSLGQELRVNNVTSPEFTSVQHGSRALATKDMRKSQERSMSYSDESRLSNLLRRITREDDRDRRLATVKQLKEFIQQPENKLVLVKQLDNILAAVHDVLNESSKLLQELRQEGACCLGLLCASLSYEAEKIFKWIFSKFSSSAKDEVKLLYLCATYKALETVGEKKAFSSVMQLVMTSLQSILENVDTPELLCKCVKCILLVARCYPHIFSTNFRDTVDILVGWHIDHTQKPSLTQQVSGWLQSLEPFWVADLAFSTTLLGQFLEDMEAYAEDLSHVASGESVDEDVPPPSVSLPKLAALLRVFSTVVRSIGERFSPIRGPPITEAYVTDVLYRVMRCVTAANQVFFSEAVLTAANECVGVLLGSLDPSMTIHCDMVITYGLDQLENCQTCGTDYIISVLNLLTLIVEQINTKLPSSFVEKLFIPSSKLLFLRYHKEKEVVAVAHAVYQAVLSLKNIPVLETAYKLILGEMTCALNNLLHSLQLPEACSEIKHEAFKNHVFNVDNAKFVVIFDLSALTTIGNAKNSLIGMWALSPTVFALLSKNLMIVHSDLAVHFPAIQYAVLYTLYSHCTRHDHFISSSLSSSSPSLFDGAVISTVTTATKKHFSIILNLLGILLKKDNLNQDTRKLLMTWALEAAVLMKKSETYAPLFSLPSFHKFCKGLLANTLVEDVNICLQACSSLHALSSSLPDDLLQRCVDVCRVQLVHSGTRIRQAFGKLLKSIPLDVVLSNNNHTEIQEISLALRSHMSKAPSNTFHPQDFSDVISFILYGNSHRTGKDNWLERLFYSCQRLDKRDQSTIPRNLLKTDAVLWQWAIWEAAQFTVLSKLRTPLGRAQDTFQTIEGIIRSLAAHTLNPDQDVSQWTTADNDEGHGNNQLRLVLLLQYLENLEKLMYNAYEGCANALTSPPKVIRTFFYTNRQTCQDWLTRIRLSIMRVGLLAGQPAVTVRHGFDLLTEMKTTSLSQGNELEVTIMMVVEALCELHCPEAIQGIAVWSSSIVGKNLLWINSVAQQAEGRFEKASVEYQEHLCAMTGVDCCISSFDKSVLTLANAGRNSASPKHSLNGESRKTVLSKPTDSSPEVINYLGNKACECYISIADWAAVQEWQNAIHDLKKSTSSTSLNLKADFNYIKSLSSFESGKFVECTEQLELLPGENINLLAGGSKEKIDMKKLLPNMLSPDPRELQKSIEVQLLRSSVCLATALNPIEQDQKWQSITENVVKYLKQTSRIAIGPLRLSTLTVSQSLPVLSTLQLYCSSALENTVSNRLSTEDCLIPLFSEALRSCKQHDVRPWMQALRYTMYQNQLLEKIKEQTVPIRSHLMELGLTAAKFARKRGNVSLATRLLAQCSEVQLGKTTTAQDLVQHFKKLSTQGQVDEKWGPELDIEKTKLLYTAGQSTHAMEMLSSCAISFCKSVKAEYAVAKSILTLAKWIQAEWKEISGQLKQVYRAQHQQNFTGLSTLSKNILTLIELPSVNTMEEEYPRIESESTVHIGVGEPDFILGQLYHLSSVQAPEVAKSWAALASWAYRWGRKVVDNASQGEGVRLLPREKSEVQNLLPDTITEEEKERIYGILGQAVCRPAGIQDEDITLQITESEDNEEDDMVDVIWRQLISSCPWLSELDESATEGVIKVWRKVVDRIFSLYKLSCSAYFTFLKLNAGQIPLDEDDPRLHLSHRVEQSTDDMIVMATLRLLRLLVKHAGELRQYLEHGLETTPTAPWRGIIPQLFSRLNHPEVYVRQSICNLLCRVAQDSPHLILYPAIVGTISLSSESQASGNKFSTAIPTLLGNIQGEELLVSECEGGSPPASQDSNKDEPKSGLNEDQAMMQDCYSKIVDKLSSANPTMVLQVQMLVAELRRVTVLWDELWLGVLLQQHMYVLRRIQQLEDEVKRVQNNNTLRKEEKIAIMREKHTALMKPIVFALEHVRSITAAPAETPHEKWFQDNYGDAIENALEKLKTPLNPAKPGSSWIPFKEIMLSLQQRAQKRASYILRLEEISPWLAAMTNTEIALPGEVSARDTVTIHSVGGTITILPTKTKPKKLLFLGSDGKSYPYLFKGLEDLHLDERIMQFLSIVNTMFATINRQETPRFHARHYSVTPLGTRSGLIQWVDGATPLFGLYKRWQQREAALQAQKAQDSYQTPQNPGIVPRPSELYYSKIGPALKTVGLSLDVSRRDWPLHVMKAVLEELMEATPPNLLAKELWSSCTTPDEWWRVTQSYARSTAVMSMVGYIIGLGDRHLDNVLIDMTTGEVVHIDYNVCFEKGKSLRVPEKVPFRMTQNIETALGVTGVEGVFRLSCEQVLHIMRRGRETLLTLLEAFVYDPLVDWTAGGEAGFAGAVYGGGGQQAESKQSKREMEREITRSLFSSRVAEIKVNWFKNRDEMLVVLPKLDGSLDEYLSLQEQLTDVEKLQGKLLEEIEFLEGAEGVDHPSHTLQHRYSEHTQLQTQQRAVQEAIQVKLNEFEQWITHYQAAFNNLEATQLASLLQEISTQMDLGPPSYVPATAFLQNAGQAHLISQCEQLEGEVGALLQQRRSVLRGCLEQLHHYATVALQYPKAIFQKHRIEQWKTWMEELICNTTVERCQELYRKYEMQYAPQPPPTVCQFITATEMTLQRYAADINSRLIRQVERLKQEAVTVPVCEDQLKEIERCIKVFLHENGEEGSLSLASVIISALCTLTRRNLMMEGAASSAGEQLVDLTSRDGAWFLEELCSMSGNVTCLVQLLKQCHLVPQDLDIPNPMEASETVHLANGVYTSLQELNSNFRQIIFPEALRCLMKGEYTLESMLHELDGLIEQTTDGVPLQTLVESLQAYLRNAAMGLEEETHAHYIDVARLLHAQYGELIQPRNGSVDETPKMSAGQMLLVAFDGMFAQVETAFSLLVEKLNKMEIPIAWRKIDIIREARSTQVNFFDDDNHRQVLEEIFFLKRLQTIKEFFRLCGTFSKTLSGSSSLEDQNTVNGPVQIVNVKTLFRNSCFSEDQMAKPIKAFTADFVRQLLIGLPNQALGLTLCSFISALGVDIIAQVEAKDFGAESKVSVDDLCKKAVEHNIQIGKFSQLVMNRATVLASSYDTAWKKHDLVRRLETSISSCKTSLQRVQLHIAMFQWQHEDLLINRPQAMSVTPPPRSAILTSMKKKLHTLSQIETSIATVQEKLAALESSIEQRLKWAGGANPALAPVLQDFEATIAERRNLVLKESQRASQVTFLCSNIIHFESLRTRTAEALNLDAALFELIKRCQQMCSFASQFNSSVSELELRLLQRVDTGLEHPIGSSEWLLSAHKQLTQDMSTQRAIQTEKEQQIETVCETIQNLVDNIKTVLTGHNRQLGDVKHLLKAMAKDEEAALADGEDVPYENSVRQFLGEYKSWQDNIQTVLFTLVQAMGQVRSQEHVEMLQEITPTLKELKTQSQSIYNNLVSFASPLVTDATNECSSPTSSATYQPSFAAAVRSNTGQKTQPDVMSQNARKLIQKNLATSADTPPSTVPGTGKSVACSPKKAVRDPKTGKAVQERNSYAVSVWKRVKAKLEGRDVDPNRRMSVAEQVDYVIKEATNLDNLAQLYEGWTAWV

| SMILES | KiNativ Kinase Panel Data (SMG1; DTVTIHSVGGTITILPTKTKPK) | KiNativ Kinase Panel Data (SMG1; SYPYLFKGLEDLHLDER) | KiNativ Kinase Panel Data (MAP3K15, MAP3K5, MAP3K6) | KiNativ Kinase Panel Data (p38a; Lys2, DLKPSNLAVNEDCELK) | KiNativ Kinase Panel Data (p38a; Other, QELNKTIWEVPER) | KiNativ Kinase Panel Data (ITPK1; [2]) | KiNativ Kinase Panel Data (MAP3K2, MAP3K3) | KiNativ Kinase Panel Data (SYK; Activation Loop, ISDFGLSKALR) | KiNativ Kinase Panel Data (SYK; Lys1, TVAVKILK) | KiNativ Kinase Panel Data (CSK; [3]) | KiNativ Kinase Panel Data (CSK; Lys1, VAVKCIK) | KiNativ Kinase Panel Data (DLK) | KiNativ Kinase Panel Data (NDR1, NDR2) | KiNativ Kinase Panel Data (JAK1_Domain2 domain2; [4]) | KiNativ Kinase Panel Data (JAK1_Domain2 domain2; [5]) | also measured |
| --- | --- | --- | --- | --- | --- | --- | --- | --- | --- | --- | --- | --- | --- | --- | --- | --- |
| CO[C@H]1C[C@@H]2CC[C@@H](C)[C@@](O)(O2)C(=O)C(=O)N2CCCC[C@H]2C(=O)O[C@H]([C@H](C)C[C@@H]2CC[C@@H](OC(=O)NCCOCCOCCOCCOCCOCCOCCOCCOCCC(=O)NCCS(=O)(=O)c3ccc(C(=O)N4CCOc5ccc(-c6ccc(N)nc6)cc5C4)c(C)c3F)[C@H](OC)C2)C[C@@H](O)[C@H](C)/C=C(\C)[C@@H](O)[C@@H](OC)C(=O)[C@H](C)C[C@H](C)/C=C/C=C/C=C/1C [compound 40] | -11.1 | 11.7 | -4.5 | -6.8 | -1.6 | -9.6 | -18.2 | -14.3 | -3.7 | 5.5 | 17.7 | -20.3 | -18.5 | 19.5 | 13.3 | KiNativ Kinase Panel Data ([1]; VLGTGAYGKVFLVR): 16.0; KiNativ Kinase Panel Data (ITPK1; NFSAGTSDRESIFFNSHNVSKPESSSVLTELDKIEGVFERPSDEVIR): -12.4; KiNativ Kinase Panel Data (MARK2, MARK3; DLKAENLLLDADMNIK): 15.7; KiNativ Kinase Panel Data (p38d, p38g; DLKPGNLAVNEDCELK): -28.8; KiNativ Kinase Panel Data (SYK; Activation Loop, AQTHGKWPVK): 13.3; KiNativ Kinase Panel Data (MAST1, MAST2; DLKPDNLLITSMGHIK): 22.5; IC50 (PI3K-GAMMA; Nanosyn, with FKBP12, read-out: PI3K-GAMMA IC50): > 1000 nM; IC50 (mTORC1; read-out: mTORC1 IC50, Nanosyn, with FKBP12): 0.473 nM; IC50 (PI3K-BETA; Nanosyn, with FKBP12): > 1000 nM; IC50 (PI3K-DELTA; Nanosyn, with FKBP12, read-out: PI3K-DELTA IC50): > 1000 nM; IC50 (PI3K-ALPHA; Nanosyn, with FKBP12, read-out: PI3K-ALPHA IC50): > 1000 nM |
| CO[C@H]1C[C@@H]2CC[C@@H](C)[C@@](O)(O2)C(=O)C(=O)N2CCCC[C@H]2C(=O)O[C@H]([C@H](C)C[C@@H]2CC[C@@H](OC(=O)NCCOCCOCCOCCOCCOCCOCCOCCOCCC(=O)N3CCc4cc(Cn5nc(-c6ccc7oc(N)nc7c6)c6c(N)ncnc65)ccc4C3)[C@H](OC)C2)C[C@@H](O)[C@H](C)/C=C(\C)[C@@H](O)[C@@H](OC)C(=O)[C@H](C)C[C@H](C)/C=C/C=C/C=C/1C [compound 38] | 0.8 | 21.6 | 24.5 | -4.3 | -5.2 | 6.5 | -12.6 | 18.4 | 14.0 | 1.9 | 13.6 | -43.9 | 25.0 | 31.3 | 26.2 | KiNativ Kinase Panel Data ([1]; […]): 33.6; KiNativ Kinase Panel Data (ITPK1; […]): 22.4; KiNativ Kinase Panel Data (MARK2, MARK3; […]): -0.4; KiNativ Kinase Panel Data (p38d, p38g; […]): -3.7; KiNativ Kinase Panel Data (SYK; Activation Loop, […]): 6.4; KiNativ Kinase Panel Data (MAST1, MAST2; […]): 19.6; IC50 (PI3K-GAMMA): > 1000 nM; IC50 (mTORC1): 0.774 nM; IC50 (PI3K-BETA): > 1000 nM; IC50 (PI3K-DELTA): 95 nM; IC50 (PI3K-ALPHA): 41.2 nM |

Reference: publication PMC9841523 (Journal of Medicinal Chemistry, 2022)
